{
  "source": "patent US20060019929A1",
  "about": "“Combination therapies employing platelet aggregation drugs” (priority 2004, published 2006)",
  "assay_type_in_all_cases": "in vivo",
  "key": {"[1]": {"tested_on": "patients who underwent percutaneous coronary intervention (PCI)", "experiment": "Maximum periprocedural CK-MB in patients with adjunctive platelet aggregation inhibitor (study data of Example 1 re-examined)", "conditions": "adjunctive ASA 82 or 325 mg, eptifibatide, or clopidogrel 75 or 300 mg", "description": "Study end points and definitions: The primary objective of the study was to evaluate the feasibility of treatment with P5P as a cardioprotective agent in high-risk elective PCI. The primary end point of infarct size was evaluated by the trapezoidal rule (Press W H, Teukolsky S A, Vetterling W T, Flannery B P. Numerical Recipes. Cambridge, UK: Cambridge University Press, 1994:127-133) using serial CK-MB enzyme measures performed at baseline and every 6 hours for 24 hours beginning immediately before initiation of PCI. The occurrence of myocardial ischemia within 24 hours after PCI was assessed as a secondary end point using continuous 12-lead electrocardiographic monitoring (Northeast Monitoring, Boston, Mass.). […] Area under the curve ST-segment deviation was measured from the onset of the first to the last contrast injection. […]"}, "[2]": {"tested_on": "patients who underwent percutaneous coronary intervention (PCI)", "experiment": "Periprocedural cardiac markers (serial CK-MB, troponin T) after high-risk elective PCI, P5P vs placebo", "source_text": "(§1) Methods—Study Overview: 60 patients who underwent percutaneous coronary intervention (PCI) at 4 centers were randomized in a 2:1 double-blinded fashion to treatment with P5P or placebo. Inclusion criteria required prior determination for non-urgent PCI of a single-vessel lesion(s) and identification of ≧1 of the following clinical characteristics determining high risk for procedural-related ischemic complications (Califf R M, Abdelmeguid A E, Kuntz R E, Popma J J, Davidson C J, Cohen E A, Kleiman N S, Mahaffey K W, Topol E J, Pepine C J, et al. Myonecrosis after revascularization procedures. J Am Coll Cardiol 1998; 31:241-251; The ESPRIT Investigators. Novel dosing regimen of eptifibatide in planned coronary stent implantation: a randomised, placebo-controlled trial. Lancet 2000; 356:2037-2044): presence of an acute coronary syndrome (chest pain within 48 hours of PCI), recent AMI (≦7 days), diminished epicardial blood flow, angiographic thrombus, ejection fraction ≦30%, or vein graft lesion. In addition to any general contraindication to the PCI procedure or standard concomitant therapies, major exclusion criteria were creatine kinase (CK-MB) elevation above the upper limit of normal immediately before PCI, electrocardiographic evidence of atrial fibrillation or left bundle branch block, or evidence of any clinically significant abnormal laboratory finding (transaminases, bilirubin, or alkaline phosphatase >1.5 times the upper limit of normal or serum creatinine >1.8 mg/dl). Patients with elevated troponin measurements were permitted in the study provided that the peak troponin value was reported >24 hours before scheduled PCI, with documentation of a decreasing value before revascularization. After providing informed consent, patients randomized to treatment with P5P were administered enteric-coated P5P as a 10 mg/kg oral dose ≧4 hours before PCI followed by 2 daily doses of 5 mg/kg orally for 14 days. Compliance and reasons for discontinued treatments were recorded for all patients.\n(§2) Study end points and definitions: The primary objective of the study was to evaluate the feasibility of treatment with P5P as a cardioprotective agent in high-risk elective PCI. The primary end point of infarct size was evaluated by the trapezoidal rule (Press W H, Teukolsky S A, Vetterling W T, Flannery B P. Numerical Recipes. Cambridge, UK: Cambridge University Press, 1994:127-133) using serial CK-MB enzyme measures performed at baseline and every 6 hours for 24 hours beginning immediately before initiation of PCI. The occurrence of myocardial ischemia within 24 hours after PCI was assessed as a secondary end point using continuous 12-lead electrocardiographic monitoring (Northeast Monitoring, Boston, Mass.). Evidence of periprocedural ischemia was defined as ST-segment depression of >100 μV within a 60-minute period of PCI, lasting ≧1 minute and separated from other episodes by ≧1 minute. Area under the curve ST-segment deviation was measured from the onset of the first to the last contrast injection. All cardiac markers and ST-segment monitoring data were analyzed by core laboratories blinded to treatment assignment (University of Maryland School of Medicine, Baltimore, Md.; Duke Ischemia Monitoring Laboratory, Durham, N.C.). […]"}, "[3]": {"tested_on": "patients who underwent percutaneous coronary intervention (PCI)", "experiment": "24-h continuous 12-lead electrocardiographic ST monitoring after PCI", "procedure": "Methods—Study Overview: 60 patients who underwent percutaneous coronary intervention (PCI) at 4 centers were randomized in a 2:1 double-blinded fashion to treatment with P5P or placebo. […] Compliance and reasons for discontinued treatments were recorded for all patients.\nas §2, with “Evidence of periprocedural ischemia was defined as ST-segment depression of >100 μV within a 60-minute period of PCI, lasting ≧1 minute and separated from other episodes by ≧1 minute.” left out"}, "[4]": {"tested_on": "patients who underwent percutaneous coronary intervention (PCI)", "experiment": "30-day composite and individual clinical event rates after PCI", "conditions": "30 days", "source_text": "Methods—Study Overview: 60 patients who underwent percutaneous coronary intervention (PCI) at 4 centers were randomized in a 2:1 double-blinded fashion to treatment with P5P or placebo. Inclusion criteria required prior determination for non-urgent PCI of a single-vessel lesion(s) and identification of ≧1 of the following clinical characteristics determining high risk for procedural-related ischemic complications (Califf R M, Abdelmeguid A E, Kuntz R E, Popma J J, Davidson C J, Cohen E A, Kleiman N S, Mahaffey K W, Topol E J, Pepine C J, et al. Myonecrosis after revascularization procedures. J Am Coll Cardiol 1998; 31:241-251; The ESPRIT Investigators. Novel dosing regimen of eptifibatide in planned coronary stent implantation: a randomised, placebo-controlled trial. Lancet 2000; 356:2037-2044): presence of an acute coronary syndrome (chest pain within 48 hours of PCI), recent AMI (≦7 days), diminished epicardial blood flow, angiographic thrombus, ejection fraction ≦30%, or vein graft lesion. […] Compliance and reasons for discontinued treatments were recorded for all patients.\nas §2, with “Evidence of periprocedural ischemia was defined as ST-segment depression of >100 μV within a 60-minute period of PCI, lasting ≧1 minute and separated from other episodes by ≧1 minute.” left out, “injection.” for “injection. All cardiac markers and ST-segment monitoring data were analyzed by core laboratories blinded to treatment assignment (University of Maryland School of Medicine, Baltimore, Md.; Duke Ischemia Monitoring Laboratory, Durham, N.C.).”"}, "[5]": {"tested_on": "patients who underwent percutaneous coronary intervention (PCI)", "experiment": "Clinical safety (bleeding, transfusion, chemistries, coagulation, discontinuation)", "source_text": "as §1, §2"}, "[6]": {"tested_on": "patients who underwent percutaneous coronary intervention (PCI)", "experiment": "Procedural and angiographic results (investigator-reported)", "source_text": "as §1\nExcept for a higher incidence of reduced epicardial flow among control patients, baseline angiographic and procedural characteristics also appeared similar between treatment groups (Table 1). Administration of P5P or placebo occurred an average of 6.1 and 8.4 hours before PCI, respectively. Stent implantation was performed in 100% and 97.3% of the placebo and P5P treatment groups, respectively. Only 1 vein graft intervention was performed using distal embolic protection. Although the right coronary artery was most commonly treated in both groups, fewer patients treated with placebo underwent revascularization of a saphenous vein graft (Table 2). Procedural angiographic complications (e.g., major dissection, abrupt vessel closure) were infrequent (Table 2)."}},
  "note": "“Also recorded” adds a separate entry of the source.",
  "data": [
    {"compound": "CC(=O)Oc1ccccc1C(=O)O", "note": "[ASA + placebo, acetylsalicylic acid]", "values": [
      {"measurement": "CK-MB max (mean)", "setting": "[1]", "result": 3.41, "unit": "ng/mL"}
    ]},
    {"compound": "COC(=O)[C@H](c1ccccc1Cl)N1CCc2sccc2C1", "note": "[Clopidogrel + placebo, clopidogrel]", "values": [
      {"measurement": "CK-MB max (mean)", "setting": "[1]", "result": 3.41, "unit": "ng/mL"}
    ]},
    {"compound": "Cc1ncc(COP(=O)(O)O)c(C=O)c1O", "note": "[P5P, pyridoxal-5-phosphate]", "values": [
      {"measurement": "maximum / peak periprocedural CK-MB level versus placebo", "setting": "[2]; P5P vs placebo", "result": "significantly lower; also recorded: significant decrease"},
      {"measurement": "Time to peak CK-MB", "setting": "[2]; median (interquartile range)", "result": "11.0 (0-18.0), 36 h"},
      {"measurement": "change in troponin T", "setting": "[2]; median (interquartile range), baseline to within 24 h after PCI", "result": "0 (0-0.07), 36 ng/ml"},
      {"measurement": "Area under the curve CK-MB (periprocedural infarct size)", "setting": "[2]; median (interquartile range), enteric-coated P5P 10 mg/kg oral ≧4 h before PCI, then 5 mg/kg twice daily 14 days, CK-MB every 6 h for 24 h", "result": "18.6 (10.2-34.5), 35 ng/ml"},
      {"measurement": "Peak CK-MB", "setting": "[2]; median (interquartile range), periprocedural", "result": "1.1 (0.5-2.4), 39 ng/ml"},
      {"measurement": "Area under the curve ST deviation", "setting": "[3]; median (interquartile range), 24-h continuous ST monitoring", "result": "1349 (951-2.263), 35 μV-min"},
      {"measurement": "Any post PCI ischemia", "setting": "[3]; percent of patients, within 24 h after PCI", "result": "14.7-34%"},
      {"measurement": "30-day deaths", "setting": "[4]", "result": "no deaths"},
      {"measurement": "30-day composite adverse event rate (death, nonfatal AMI, new and/or worsening heart failure, or recurrent ischemia)", "setting": "[4]; p=1.0 vs placebo", "result": 17.9, "unit": "%"},
      {"measurement": "30-day nonfatal AMI", "setting": "[4]; p=1.0 vs placebo", "result": 12.8, "unit": "%"},
      {"measurement": "abnormalities of routine chemistries or coagulation studies versus placebo", "setting": "[5]; at 7 and 30 days", "result": "no apparent differences"},
      {"measurement": "safety issues related to treatment", "setting": "[5]; human, in vivo", "result": "No safety issues"},
      {"measurement": "need for blood product transfusion", "setting": "[5]; p=0.26 vs placebo", "result": 2.5, "unit": "%"},
      {"measurement": "major bleeding", "setting": "[5]; p=0.27 vs placebo", "result": 2.8, "unit": "%"},
      {"measurement": "patients discontinued drug therapy before completion of the prescribed 2 weeks", "setting": "[5]; p=0.77 vs placebo", "result": 30.8, "unit": "%"},
      {"measurement": "TIMI flow final 0/1", "setting": "[6]; after PCI, n = 37", "result": "0 number (percent)"},
      {"measurement": "TIMI flow final 2", "setting": "[6]; after PCI, n = 37", "result": "0 number (percent)"},
      {"measurement": "TIMI flow final 3", "setting": "[6]; after PCI, n = 37", "result": "37 (100) number (percent)"},
      {"measurement": "Diameter stenosis final", "setting": "[6]; median (interquartile range), after PCI", "result": "0 (0-0) %"},
      {"measurement": "Procedural complications: Abrupt closure", "setting": "[6]; n = 37", "result": "0 number (percent)"},
      {"measurement": "Procedural complications: Distal embolization", "setting": "[6]; n = 37", "result": "0 number (percent)"},
      {"measurement": "Procedural complications: Major dissection", "setting": "[6]; n = 37", "result": "1 (3) number (percent)"},
      {"measurement": "Procedural complications: No reflow", "setting": "[6]; n = 37", "result": "0 number (percent)"},
      {"measurement": "Procedural complications: None", "setting": "[6]; n = 37", "result": "35 (95) number (percent)"},
      {"measurement": "Procedural complications: Side branch closure", "setting": "[6]; n = 37", "result": "1 (3) number (percent)"},
      {"measurement": "Procedural complications: Thrombus formation", "setting": "[6]; n = 37", "result": "0 number (percent)"}
    ]},
    {"compound": "eptifibatide [Eptifibatide + placebo]", "values": [
      {"measurement": "CK-MB max (mean)", "setting": "[1]", "result": 3.40, "unit": "ng/mL"}
    ]}
  ]
}
